The results in this text go back to patent US4748172A, “3-bicyclicpyridinium-methyl cephalosporins” (Eli Lilly and Company, priority 1987, dated 1988).

What all share (assay type): cell-based
In test [1] the test system is Staph. epi EPI1. Kind of test: Agar dilution MIC. To be noted: strain EPI1. A general note: In agar dilution, organisms are placed on agar that contains the substance at set levels.
Test [2] relates to Staph. aureus S13E. Kind of test: microbe, parasite or virus in culture. Particulars: Staphylococcus aureus.
For test [3], the system named is Klebsiella X68. Kind of test: Agar dilution MIC.
Test [4] relates to Staph. aureus X400. Kind of test: Agar dilution MIC. Particulars: Staphylococcus aureus.
The test system of test [5] is Pseudomonas X239. Kind of test: Agar dilution MIC. Particulars: strain X239. An excerpt: (§1) The antibacterial activity of several representative compounds of the invention has been evaluated in standard in vitro agar dilution assays. The following Table presents typical minimum inhibitory concentrations (MIC's) in μg/ml for exemplary compounds when evaluated against typical Gram+and Gram-microorganism.
(§2) Agar Dilution MIC (μg/ml)

Test [6] relates to Pseudomonas X528. Kind of test: Agar dilution MIC. Particulars: strain X528.
Source text: as §1, §2

Test [7] concerns Staph. aureus V41. Kind of test: Agar dilution MIC. To be noted: Staphylococcus aureus, strain V41.
For test [8], the system named is Strep. D 9960. The test can be described thus: Agar dilution MIC.

Converted amounts (≈) assume the structure as drawn.

As for `CO/N=C(\C(=O)N[C@@H]1C(=O)N2C(C(=O)[O-])=C(C[n+]3cccc4nc(N)sc43)CS[C@H]12)c1csc(N)n1` [Example 15, syn-7-[2-(2-aminothiazol-4-yl)-2-methoxyiminoacetamido]-3-(2-aminothiazolo[5,4-b]pyridinium-4-ylmethyl)-3-cephem-4-carboxylate], the MIC in test [1] worked out at 2 µg/mL (≈ 3.66 µM); in test [2], 4 µg/mL (≈ 7.32 µM); in test [3], 4 µg/mL (≈ 7.32 µM); in test [4], 32 µg/mL (≈ 58.5 µM); in test [5] it was 2 µg/mL (≈ 3.66 µM); in test [6], 1 µg/mL (≈ 1.83 µM). The MIC in test [7] worked out at 2 µg/mL (≈ 3.66 µM); in test [8], 8 µg/mL (≈ 14.6 µM).
